{"source": "patent US8688227B2", "about": "“Suction electrode-based medical instrument and system including the medical instrument for therapeutic electrotherapy” (Old Dominion Research Foundation, priority 2007, dated 2014)", "key": {"liver cells": {"test_system": "liver cells", "conditions": "oxidative stress-activated NSCCs; cited from earlier work"}, "nsPEF-exposed cells": {"test_system": "nsPEF-exposed cells", "assay": "Whole-cell patch clamp of membrane conductance/resistance after nsPEF exposure", "assay_type": "cell-based", "experimental": "Experiments were performed in GH3 cells (a murine pituitary cell line) and HeLa cells (human epithelial cancer), both obtained from American Type Culture Collection (ATCC, Manassas, Va.) and cultured according to their recommendations. Cells were grown in 75-cm2 flasks at 37° C. with 5% CO2 in air. GH3 cells were cultured in Ham's F12K medium supplemented with 2.5% fetal bovine serum (FBS) and 15% horse serum (Atlanta Biologicals, Norcross, Ga.). HeLa cells were propagated in Eagle minimum essential medium with 10% FBS. The cultures also contained 1% L-glutamine and 1% penicillin/streptomycin (Mediatech Cellgro, Herndon, Va.). For passaging, cells were removed from the substrate with 2-3 ml of 0.25% Trypsin with 2.21 mM EGTA. The cultures were maintained in the logarithmic stage of growth and used at passages 3-15. For a passage immediately preceding the experiments, cells were grown attached to 8- or 10-nun diameter glass cover slips in 35-mm Petri dishes. The cover slips were pretreated with poly-1-lysine (Sigma-Aldrich, St. Louis, Mo.) to improve cell adherence.\nThese pairs were formulated to explore, in the first approximation, how different ion substitutions would affect Gm and the reversal potential (Erev) after nsPEF exposure. Two pairs (Cs/Na and Cs/Ba-TEA) were also used to explore nsPEF effects on voltage-gated Na^+ and Ca^2+ channels, respectively. In general, solution pairs from the top to the bottom of the Table 1 contain diminishing amounts and variety of monovalent ions, i.e., K and/or Na were replaced with larger cs^+, TEA^+, or NMDG^+. The contents of anions (C1 and HEPES) were kept almost constant and the same in bath and pipette solutions, except for the last pair, where most of the pipette C1 was replaced with HEPES^−. The pH of pipette and bath solutions was adjusted to 7.4 and 7.2, respectively; the ionic contents shown in Table 1 already include any extra amounts of ions added as a base or acid for pH adjustment. The osmolality of all solutions was between 290 and 320 mOsm, as measured with a freezing point microosmometer (Advanced Instruments, Inc., Norwood, Mass., USA).\nPatch clamp recording: Cells on a cover slip were transferred into a glass-bottomed chamber (Warner Instruments, Hamden, Conn.) mounted on a motorized stage (Prior Scientific Inc., Rockland, Mass.) of an IX71 FluoView™ 300 confocal laser scanning microscope. […] The data from these experiments were analyzed differently (see below). […]\nOnce the whole-cell configuration was formed, the membrane resistance and capacitance (Rm and Cm) were measured using the Membrane Test utility of pClamp1 0 software. […] The membrane potential (MP) was measured by switching briefly from voltage to current clamp mode at I=0. […]"}, "hippocampal CA1 neurons": {"test_system": "hippocampal CA1 neurons", "conditions": "cited from earlier work"}, "GH3 or HeLa cells": {"test_system": "GH3 or HeLa cells", "assay": "PI uptake, positive control for permeabilization", "assay_type": "cell-based", "conditions": "0.03% added into the bath", "experimental": "Moreover, the cells remained impermeable to PI even after extra-long trains of 200 pulses, which caused necrotic changes in cells morphology, and even when the observation period was extended to 30-60 min after the exposure."}}, "note": "Read-outs that look alike come from different tables or passages of the source.", "data": [{"smiles": "[Cl][Gd]([Cl])[Cl]", "note": "[Gd^3+]", "values": [{"measurement": "number of necrotic cells", "setting": "liver cells", "value": "sharply decreased"}, {"measurement": "protective effect against nsPEF", "setting": "nsPEF-exposed cells; 0.2 mM, first trials", "value": "no protection"}, {"measurement": "swelling and other deleterious effects of oxygen-glucose deprivation", "setting": "hippocampal CA1 neurons; 100 AM", "value": "reduced swelling"}]}, {"smiles": "[Cl][La]([Cl])[Cl]", "note": "[La^3+]", "values": [{"measurement": "swelling and other deleterious effects of oxygen-glucose deprivation", "setting": "hippocampal CA1 neurons; 100 AM", "value": "reduced swelling"}]}, {"smiles": "C[C@@H]1CC[C@@]2(OC1)O[C@H]1[C@@H](O)[C@H]3[C@@H]4CC[C@H]5C[C@@H](O[C@@H]6O[C@H](CO)[C@H](O[C@@H]7O[C@H](CO)[C@@H](O)[C@H](O[C@@H]8OC[C@@H](O)[C@H](O)[C@H]8O)[C@H]7O[C@@H]7O[C@H](CO)[C@H](O)[C@H](O[C@@H]8O[C@H](CO)[C@@H](O)[C@H](O)[C@H]8O)[C@H]7O)[C@H](O)[C@H]6O)[C@H](O)C[C@]5(C)[C@H]4CC[C@]3(C)[C@H]1[C@@H]2C", "note": "[digitonin]", "values": [{"measurement": "time to bright PI fluorescence after addition", "setting": "GH3 or HeLa cells", "value": "1 to 2", "unit": "min"}, {"measurement": "permeabilization, PI fluorescence", "setting": "GH3 or HeLa cells; PI in the medium", "value": "bright PI fluorescence"}]}, {"smiles": "N.N.N.N.N.N.N.N.N.N.N.N.N.N.[Cl-].[Cl-].[Cl-].[Cl-].[Cl-].[Cl-].[O-2].[O-2].[Ru+3].[Ru+3].[Ru+4]", "note": "[ruthenium red]", "values": [{"measurement": "membrane conductance increase by nsPEF", "setting": "nsPEF-exposed cells; 10 p.M in bath of K/Na pair, prior to 1 or 5 pulses", "value": "neither enhanced nor inhibited"}, {"measurement": "effect on control (sham-exposed) cells", "setting": "nsPEF-exposed cells; 50 and 200 μM in bath of K/Na pair", "value": "no apparent effect"}, {"measurement": "condition of nsPEF-exposed cells", "setting": "nsPEF-exposed cells; 50 and 200 μM in bath of K/Na pair, prior to 1 or 5 pulses", "value": "worsened the condition"}, {"measurement": "swelling and other deleterious effects of oxygen-glucose deprivation", "setting": "hippocampal CA1 neurons; 1 ilM", "value": "reduced swelling"}]}]}
